In ChEMBL document CHEMBL1201862, “PubChem BioAssay data set” (2004):
Calls of active or inactive are those of the source.

Tests used:
[1] = molecular target: T1, Corticotropin-releasing factor receptor 2/Corticotropin-releasing factor-binding protein (Homo sapiens, UniProt P24387+Q13324); test: activators of CRF receptor 2 with binding protein – uHTS hits, confirmation (AID 602473); type: functional; conditions: read-out: EC50_Mean
T1 sequence (Q13324 whole entry): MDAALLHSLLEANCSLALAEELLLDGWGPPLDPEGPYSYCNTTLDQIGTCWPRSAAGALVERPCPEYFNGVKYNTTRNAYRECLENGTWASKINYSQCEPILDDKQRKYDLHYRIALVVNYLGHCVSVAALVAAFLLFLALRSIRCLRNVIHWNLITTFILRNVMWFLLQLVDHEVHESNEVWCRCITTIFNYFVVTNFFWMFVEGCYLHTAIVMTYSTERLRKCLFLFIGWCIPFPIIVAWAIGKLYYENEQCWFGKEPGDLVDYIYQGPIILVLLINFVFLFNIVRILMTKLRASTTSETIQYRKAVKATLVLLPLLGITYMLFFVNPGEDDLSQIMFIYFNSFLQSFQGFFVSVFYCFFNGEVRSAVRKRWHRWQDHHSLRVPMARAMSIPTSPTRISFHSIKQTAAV
T1 sequence (P24387 whole entry): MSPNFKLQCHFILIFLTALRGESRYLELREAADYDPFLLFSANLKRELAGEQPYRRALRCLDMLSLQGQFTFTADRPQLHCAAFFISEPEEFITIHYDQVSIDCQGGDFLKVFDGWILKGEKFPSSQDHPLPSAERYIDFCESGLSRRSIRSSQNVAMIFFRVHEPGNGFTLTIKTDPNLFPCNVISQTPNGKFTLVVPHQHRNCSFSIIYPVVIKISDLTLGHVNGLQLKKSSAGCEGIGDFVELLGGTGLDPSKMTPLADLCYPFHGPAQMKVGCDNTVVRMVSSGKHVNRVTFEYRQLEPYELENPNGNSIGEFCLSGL

[2] = molecular target: T1, Corticotropin-releasing factor receptor 2/Corticotropin-releasing factor-binding protein; test: Dose Response confirmation of uHTS hits for small molecule antagonists of the CRF-binding protein and CRF-R2 receptor complex.; type: functional; conditions: read-out: IC50_Mean
[3] = CRF-BP/CRF-R2 complex antagonists, dose response, cell-based, uHTS hits, 384-well (AID 651639); type: functional, Homo sapiens; conditions: read-out: IC50_Mean
[4] = molecular target: T2, Ubiquitin-conjugating enzyme E2 N (Homo sapiens, UniProt P61088); type: functional;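 further: Dose-response confirmation in a TR-FRET assay detecting UBC13-driven polyubiquitin chain formation, inhibition measured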
T2 sequence (P61088 whole entry): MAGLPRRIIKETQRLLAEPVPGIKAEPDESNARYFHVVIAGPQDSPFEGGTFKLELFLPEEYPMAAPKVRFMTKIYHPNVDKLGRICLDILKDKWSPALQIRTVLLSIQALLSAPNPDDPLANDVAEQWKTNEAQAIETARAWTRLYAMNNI

[5] = molecular target: T3, DNA repair protein RAD52 homolog (Homo sapiens, UniProt P43351); type: functional, biochemical
T3 sequence (P43351 whole entry): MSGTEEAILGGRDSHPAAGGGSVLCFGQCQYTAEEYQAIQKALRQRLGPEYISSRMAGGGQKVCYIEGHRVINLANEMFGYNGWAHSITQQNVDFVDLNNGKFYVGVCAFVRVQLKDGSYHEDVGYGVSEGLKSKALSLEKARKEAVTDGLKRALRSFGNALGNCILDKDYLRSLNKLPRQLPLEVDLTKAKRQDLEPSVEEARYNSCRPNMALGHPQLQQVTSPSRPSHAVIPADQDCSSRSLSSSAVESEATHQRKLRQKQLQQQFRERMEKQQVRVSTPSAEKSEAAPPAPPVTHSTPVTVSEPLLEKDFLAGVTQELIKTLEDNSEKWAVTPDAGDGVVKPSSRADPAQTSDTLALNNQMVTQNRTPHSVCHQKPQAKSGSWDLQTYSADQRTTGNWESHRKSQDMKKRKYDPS

Galanin receptor type 3 = molecular target: T4, Galanin receptor type 3 (Homo sapiens, UniProt O60755); test: Fluorescence-based cell-based primary high throughput dose response assay to identify antagonists of the Galanin Receptor 3 (GalR3).; type: functional
T4 sequence (O60755 whole entry): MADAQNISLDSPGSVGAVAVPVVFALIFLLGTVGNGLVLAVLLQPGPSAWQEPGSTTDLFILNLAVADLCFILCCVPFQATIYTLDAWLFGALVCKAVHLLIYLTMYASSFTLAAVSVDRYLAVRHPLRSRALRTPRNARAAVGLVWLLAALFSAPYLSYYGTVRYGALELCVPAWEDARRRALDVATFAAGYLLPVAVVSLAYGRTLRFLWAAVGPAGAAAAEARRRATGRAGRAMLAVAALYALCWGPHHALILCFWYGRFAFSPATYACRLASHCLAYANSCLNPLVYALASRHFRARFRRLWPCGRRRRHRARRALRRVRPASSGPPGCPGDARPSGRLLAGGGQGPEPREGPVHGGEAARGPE

cells = type: functional, cell-based; conditions: HEK-CNG
[6] = molecular target: Photoreceptor-specific nuclear receptor (Homo sapiens, UniProt Q9Y5X4); type: functional, cell-based;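 further: CHO-S cells with Gal4-NCOR and VP16-NR2E3 two-hybrid luciferase reporter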
Sequence of Photoreceptor-specific nuclear receptor (Q9Y5X4 whole entry, the tested form may be a part): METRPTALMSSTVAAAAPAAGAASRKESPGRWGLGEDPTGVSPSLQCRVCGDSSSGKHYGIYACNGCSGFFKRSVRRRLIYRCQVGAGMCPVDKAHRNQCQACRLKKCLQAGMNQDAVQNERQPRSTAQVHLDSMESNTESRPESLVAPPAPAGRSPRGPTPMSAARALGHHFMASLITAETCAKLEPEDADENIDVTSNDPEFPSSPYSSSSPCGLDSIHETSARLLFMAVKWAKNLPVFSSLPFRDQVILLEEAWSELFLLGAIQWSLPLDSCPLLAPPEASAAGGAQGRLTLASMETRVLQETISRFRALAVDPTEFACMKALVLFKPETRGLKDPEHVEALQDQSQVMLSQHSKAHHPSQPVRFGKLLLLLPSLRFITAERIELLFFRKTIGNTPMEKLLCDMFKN

[7] = molecular target: T5, Carboxy-terminal domain RNA polymerase II polypeptide A small phosphatase 1 (Homo sapiens, UniProt Q9GZU7); test: inhibitors of CTDSP1, concentration-response testing, biochemical assay, absorbance-based, actives from ultra-high-throughput screening (AID 540297); type: functional
T5 sequence (Q9GZU7 whole entry): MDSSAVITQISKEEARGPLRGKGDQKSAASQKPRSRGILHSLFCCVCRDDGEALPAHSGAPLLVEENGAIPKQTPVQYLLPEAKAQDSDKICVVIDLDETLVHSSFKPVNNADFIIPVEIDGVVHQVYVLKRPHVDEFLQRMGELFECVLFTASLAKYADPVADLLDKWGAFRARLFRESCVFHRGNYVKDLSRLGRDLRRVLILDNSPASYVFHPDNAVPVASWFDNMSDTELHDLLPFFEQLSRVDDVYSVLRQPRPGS

[8] = Luminescence Cell-Based Dose Retest to Confirm Inhibitors of Cancer Stem Cells. [Related pubchem assays (depositor defined):AID2717, AID2721]; type: functional; conditions: Homo sapiens
[9] = control 3'UTR Renilla luciferase suppression, dose response, counter-screen for Shn3 inhibitor project, cell-based, Clone20-Shn3RL, cherry-picked (AID 624133); type: functional
INS1 = test: beta cell apoptosis inhibitors, cytokine rescue, dose response, luminescence, retest (AID 449756); type: functional, cell-based; conditions: Rattus norvegicus;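 further: cell death triggered by IL-1 beta plus TNF-alpha plus IFN-gamma mixture; protective hits raise ATP signal compared with cytokine alone wells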
Nonstructural protein 1 = Nonstructural protein 1 (Influenza A virus, UniProt Q194T2); type: functional, Influenza A virus (A/California/07/2009(H1N1))
Sequence of Nonstructural protein 1 (Q194T2 whole entry): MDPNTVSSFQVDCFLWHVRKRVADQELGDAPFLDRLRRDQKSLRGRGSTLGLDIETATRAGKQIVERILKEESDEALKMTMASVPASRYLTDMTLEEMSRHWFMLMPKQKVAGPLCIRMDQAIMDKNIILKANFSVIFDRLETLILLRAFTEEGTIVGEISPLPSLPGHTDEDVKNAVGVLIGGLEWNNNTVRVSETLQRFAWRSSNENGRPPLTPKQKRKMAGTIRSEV

[10] = HepG2 cell cytotoxicity, dose response, cytotoxicity control for Shn3 inhibitor project, CellTiter-Glo, cherry-picked (AID 624134); type: functional, cell-based
[11] = Shn3 3'UTR reporter inhibitors, dose response, cell-based, Clone20 osteoblasts, firefly luciferase, cherry-picked (AID 624132); type: functional;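 further: firefly luciferase luminescence from reporter carrying the Shn3 3'UTR in osteoblasts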

With `Fc1ccccc1CSc1nnnn1-c1ccc2c(c1)OCO2` the EC50 [1] was > 53 µM (inactive), the IC50 [2] was 15.6 µM (active) and the IC50 [3] was > 20 µM (inactive).
For `CN(C(=O)Oc1ccc(C(=O)c2ccc(Cl)cc2)cc1)c1ccccc1`, the EC50 [1] was > 53 µM (inactive), the IC50 [2] was < 0.368 µM (active) and the IC50 [3] was > 20 µM (inactive).
With `CCOc1ccc(-n2c(SCC(=O)NCc3ccco3)nc3c4ccccc4nc-3c2O)cc1` the EC50 [1] was > 53 µM (inactive), the IC50 [2] was 3.76 µM (active) and the IC50 [3] was 15 µM (active).
With `CC[C@@H](C)[C@@H]1CN([C@@H](CN2CCC[C@H]2CN2C(N)=NC[C@H]2CC(C)C)C(C)C)C(=N)N1CCc1ccc(Cl)c(Cl)c1` the IC50 [4] was > 20 µM (inactive), the EC50 [1] was 42.3 µM (active) and the IC50 [2] was 2.82 µM (active). The IC50 [3] was 7.1 µM (active) and the AC50 [5] was 17.3 µM (active).
With `CSc1ccc(C(=O)C2CCCN(C(=O)CCc3c(C)nn(C)c3C)C2)cc1` (stereo unspecified) the IC50 (Galanin receptor type 3) was 1.15 µM (active) and the EC50 (cells) was > 29.9 µM (inactive).
For `COCCCNC(=S)N1CCN(c2nc(-c3ccc(Cl)cc3)cs2)CC1`, the IC50 [6] was 4.25 µM (active).
In the case of `O=C(O)C1OC1(c1ccccc1Cl)c1ccccc1Cl` (stereo unspecified), the EC50 [1] was > 53 µM (inactive), the IC50 [2] was 23.4 µM (active) and the IC50 [3] was > 20 µM (inactive).
For `COc1ccc(C)cc1NC(=O)NC1CC(=O)N(c2ccc3c(c2)OCCO3)C1` (stereo unspecified), the IC50 [6] was 3.25 µM (active).
For `CCOC(=O)c1cc2c(=O)n3cccc(C)c3nc2n(Cc2ccco2)/c1=N/C(=O)c1cccnc1`, the IC50 [7] was 18.8 µM (active).
For `FC(F)(F)c1ccccc1Cc1c(-c2ccco2)nc2c3ccccc3ccn12`, the IC50 (Galanin receptor type 3) was 13 µM (inactive) and the EC50 (cells) was > 29.9 µM (inactive).
With `Clc1cc2cccnc2c2ncccc12` the AC50 [8] was 4.73 µM (active), the AC50 [9] was 3.94 µM (active) and the AC50 (INS1) was 6.84 µM (active). For the same molecule, the IC50 (Nonstructural protein 1) was 3.44 µM (active), the AC50 [10] was 5.34 µM (active) and the IC50 [6] was 5.53 µM (active). For the same molecule, the AC50 [11] was 4.06 µM (active).
